Data from ChEMBL document CHEMBL5143711, “Glenthmycins A-M: Macrocyclic Spirotetronate Polyketide Antibacterials from the Australian Pasture Plant-Derived Streptomyces sp. CMB-PB041” (J Nat Prod, 2022).

Columns and labels:
Format in all cases: functional, organism-based
Staphylococcus aureus [1] = assay: Antibacterial activity against Staphylococcus aureus ATCC 25923 incubated for 16 to 24 hrs in presence of rifampin by broth microdilution based spectrophotometric analysis
Enterococcus faecalis [2] = assay: Antibacterial activity against Enterococcus faecalis incubated for 16 to 24 hrs in presence of rifampicin by broth microdilution based spectrophotometric analysis
Staphylococcus aureus [3] = assay: Antibacterial activity against Staphylococcus aureus ATCC 25923 incubated for 16 to 24 hrs in presence of ampicillin by broth microdilution based spectrophotometric analysis
Enterococcus faecalis [4] = assay: Antibacterial activity against Enterococcus faecalis incubated for 16 to 24 hrs in presence of ampicillin by broth microdilution based spectrophotometric analysis

Row | IC50 (Staphylococcus aureus [1]) [µM] | IC50 (Enterococcus faecalis [2]) [µM] | IC50 (Staphylococcus aureus [3]) [µM] | IC50 (Enterococcus faecalis [4]) [µM] | Structure (SMILES)
1 | < 10 | < 10 | – | – | CC1(C)S[C@@H]2[C@H](NC(=O)[C@H](N)c3ccccc3)C(=O)N2[C@H]1C(=O)O [AMPICILLIN]
2 | – | – | < 10 | < 10 | CO[C@H]1/C=C/O[C@@]2(C)Oc3c(C)c(O)c4c(O)c(c(/C=N/N5CCN(C)CC5)c(O)c4c3C2=O)NC(=O)/C(C)=C\C=C\[C@H](C)[C@H](O)[C@@H](C)[C@@H](O)[C@@H](C)[C@H](OC(C)=O)[C@@H]1C [RIFAMPIN]
